{
  "source": "patent US20260069693A1",
  "about": "“UROLITHINS AND T-CELL MEDIATED IMMUNE RESPONSE” (priority 2022, published 2026)",
  "key": {"Splenic murine T cells": {"test_system": "Splenic murine T cells", "test": "aCD3/aCD28 stimulation of murine T cells in presence of UA, flow cytometry", "format": "cell-based", "experimental": "Mitochondrial remodelling has been previously associated with alterations in T cell fate (Buck et al., 2016; Yu et al., 2020b). Given the observed dependency of the UA effect on CD8^+ T cells, the inventors wondered whether UA may also directly affect T cell fate commitment. Purified T cells from FVB mice were stimulated with aCD3/aCD28 beads to induce T cell differentiation into effector T cell subsets in the presence or absence of UA for up to 72 hours (FIG. 2A). […] Previously, a rare naïve-like subset of T cells with enhanced stemness capabilities, termed T memory stem cells (TSCM) has been identified (Gattinoni et al., 2009). TSCM are marked by extreme longevity, their ability to self-renew, and potential for immune reconstitution (Gattinoni et al., 2017) which translates into potent anti-tumor immunity. Phenotypically, TSCM represent a subset of minimally differentiated T cells, which share a CD44^loCD62L^hi phenotype with naïve T cells, but are phenotypically distinct by expressing high levels of Sca1 (Gattinoni et al., 2009). […] This was associated with reduced cyclin D1 expression (not shown), in line with previous observations that link TSCM reprogramming to halted proliferation (Gattinoni et al., 2009; Verma et al., 2021).\nSplenic murine T cells were isolated from mice aged 6-20 weeks by negative selection with EasySep mouse T cell isolation kit (Stem cell) according to the manufacturer's instructions. To monitor T cell proliferation, purified T cells were loaded with CellTrace Violet (C34557 ThermoFisher Scientific). T cell activation was initiated using αCD3/CD28 activation beads (11456D; ThermoFisher Scientific) at a ratio of 25 μl dynabeads per 0.5×10^6 T-cells. Cells were activated with 25-50 μM Urolithin A (Tocris) or DMSO in T cell activation Medium (RPMI (ThermoFisher Scientific) 10% FBS (South America origin), 10 mM Hepes (Sigma), 1× Non-Essential Amino Acid, 1 mM Sodium Pyruvate, 50 μM B-Mercaptoethanol, 100 U/ml penicillin, 100 μg/ml streptomycin and 2 mM Glutamax (ThermoFisher Scientific) for the indicated durations. In selected experiments, cells were stimulated in the presence of inhibitors, namely TCF1i (ICG-001; SelleckChem; 10 μM) and PGC-1αi (SR-18292, Sigma-Aldrich; 10 μm,). For subsequent analysis, activating beads were magnetically removed prior antibody staining. For human T cells, peripheral blood mononuclear cells were purified with a Ficoll-Paque (GE healthcare) gradient. T cells were enriched with EasySep Human T Cell Isolation Kit (StemCell) and activated with dynabead Human T-Activator CD3/CD28 for T Cell Expansion and Activation Kit (11131D; ThermoFisher Scientific), similar to murine T cell stimulation. […]\nFor flow cytometric analysis of mitochondria and lysosomes 500 μl of Mitotracker Red (200 nM; ThermoFisher) or Lysotracker Red DND-99 (75 nM; ThermoFisher) were applied followed by surface staining. To study changes in mitochondrial membrane potential, Mitoprobe TMRM kit (ThermoFisher) was used according to the manufacturer's instructions. Cell proliferation was assessed by CellTrace Violet (Invitrogen, C34557) at a concentration of 5 μM according to manufacturer's instructions. For human samples, cells were stained as described above with Fixable Viability Dye-eF780, αCD95-BV421 (DX2; 562616), αCD62L-PE (DREG-56; 555544), αCCR7-AF700 (150503; 561143), αCD45RO-APC (UCHL; 559865), αCD45RA-FITC (HI100; 555488), αCD8-PE-CF594 (RPA-T8; 562282) and αCD4-BV786 (OKT4; 566806) from BD."}, "OT-1 T cells": {"test_system": "OT-1 T cells", "test": "adoptive transfer of UA-treated OT-1 T cells, engraftment", "format": "in vivo, Rag1^−/− mice", "conditions": "seven days after transfer of T cells stimulated 48 h with UA (25 μM) vs DMSO", "source_text": "Adoptive cell transfer (ACT) represents the infusion of antigen-specific leukocytes with direct antitumor activity, yet identification, selection and expansion of lymphocyte subsets harboring optimal antitumor qualities remains one of the most crucial challenges (Rosenberg and Restifo, 2015). ACT benefits especially from minimally differentiated cells due to their improved survival and long-term potential to generate unexhausted effector cells (Luca Gattinoni et al; Mo et al., 2021; Roberto et al., 2015). In particular, CD8^+ T cells restricted in a stem-like state have been associated with enhanced tumor suppressive properties upon adoptive cell transfer (Enrico Lugli et al; Verma et al., 2021). […] The inventors cultured T cells from OT-1 donor mice (FIG. 3A) for 48 hours in the presence of UA or vehicle control, followed by adoptive transfer into immunodeficient Rag1^−/− mice. […] Moreover, consistent with an improved memory response, animals receiving UA-pretreated T cells contained less Tim3^HiPD1^Hi terminally exhausted CD8^+ T cells in the TME (FIG. 3I). Thus, UA augments immune-mediated antitumor memory upon adoptive cell transfer.\nFor adoptive cell transfer transfer, purified splenic T cell from OT1 mice were isolated and activated using aCD3/aCD28 stimulation beads for 48 h. […] Tumor growth was assessed as described above. […]"}, "CD19-CAR T cells": {"test_system": "CD19-CAR T cells", "format": "cell-based, human"}, "[1]": {"conditions": "cited from earlier work"}, "APTK-s.c. tumors": {"test_system": "APTK-s.c. tumors", "test": "subcutaneous APTK tumors in Rag1-/- mice, UA diet", "conditions": "absence of mature T and B cells; UA-containing vs control food"}, "[2]": {"conditions": "48 hours in presence of UA, prior to ACT"}, "[3]": {"conditions": "CD62L+CD44-CD8+ T cells, 48 h, UA 25 μM"}},
  "data": [
    {"smiles": "O=c1oc2cc(O)ccc2c2ccc(O)cc12", "note": "[UA, Urolithin A]", "values": [
      {"measurement": "TSCM formation, dependence on T cell activation", "setting": "Splenic murine T cells", "result": "only formed in activated T cells"},
      {"measurement": "cyclin D1 expression", "setting": "Splenic murine T cells", "result": "reduced"},
      {"measurement": "lysosome formation in CD8+ T cells", "setting": "Splenic murine T cells; 6 h, UA 50 μM", "result": "enhanced"},
      {"measurement": "loss of mitochondrial content in T cell subsets (TSCM, TCM and TEFF)", "setting": "Splenic murine T cells; 24 h", "result": "detected in all T cell subsets analyzed"},
      {"measurement": "number of CD44-CD62L+Sca1hi TSCM", "setting": "Splenic murine T cells; 24 h, 48 h and 72 h after aCD3/aCD28 stimulation", "result": "significantly increased"},
      {"measurement": "CD95 expression of CD8+ T cells from OT-1 donors", "setting": "Splenic murine T cells; [2]", "result": "enhanced"},
      {"measurement": "TSCM phenotype of CD8+ T cells from OT-1 donors", "setting": "Splenic murine T cells; [2]", "result": "displayed a TSCM phenotype"},
      {"measurement": "TSCM formation in CD4+ cells", "setting": "Splenic murine T cells; CD4+ cells", "result": "did not promote enhanced TSCM formation"},
      {"measurement": "frequency of TEM cells in CD4+ cells", "setting": "Splenic murine T cells; CD4+ cells, later timepoints", "result": "enhanced frequency"},
      {"measurement": "naïve-like CD4+ cells", "setting": "Splenic murine T cells; CD4+ cells, later timepoints", "result": "less"},
      {"measurement": "CD95 expression of TSCM", "setting": "Splenic murine T cells; [3]", "result": "increased"},
      {"measurement": "mitochondrial membrane potential of TSCM (TMRM)", "setting": "Splenic murine T cells; [3]", "result": "reduced"},
      {"measurement": "CD8+ T cell division", "setting": "Splenic murine T cells; CellTrace Violet", "result": "restricted"},
      {"measurement": "differentiation into effector T cells (Granzyme B, IFNg expression)", "setting": "Splenic murine T cells; T cells from FVB mice, aCD3/aCD28 beads, 48 h, UA vs DMSO", "result": "blocked"},
      {"measurement": "central memory cells (TCM)", "setting": "Splenic murine T cells; aCD3/aCD28, up to 72 hours", "result": "reduction"},
      {"measurement": "frequency of effector memory cells (TEM)", "setting": "Splenic murine T cells; aCD3/aCD28, up to 72 hours", "result": "remained unaltered"},
      {"measurement": "naïve CD44loCD62Lhi T cells", "setting": "Splenic murine T cells; aCD3/aCD28, up to 72 hours", "result": "significant increase"},
      {"measurement": "mitochondrial content (MitoTracker Red) in CD8+ T cells", "setting": "Splenic murine T cells; after 24 hours", "result": "loss of mitochondrial content in a dose-dependent manner"},
      {"measurement": "T cell death in vitro", "setting": "Splenic murine T cells; in vitro", "result": "dose-dependent T cell death"},
      {"measurement": "PGC-1 expression in CD8+ T cells", "setting": "Splenic murine T cells; prolonged UA administration in vitro, 48 h, 50 μM", "result": "marked upregulation"},
      {"measurement": "mitochondrial membrane potential in CD8+ T cells", "setting": "Splenic murine T cells; within six hours, UA 50 μM", "result": "reduction"},
      {"measurement": "number of engrafted (splenic) CD8+ T cells", "setting": "OT-1 T cells", "result": "significantly higher"},
      {"measurement": "gene delivery into CD8+ cells", "setting": "CD19-CAR T cells", "result": "did not impair"},
      {"measurement": "Markers of exhaustion of CAR T cells", "setting": "CD19-CAR T cells; UA supplementation", "result": "not affected"},
      {"measurement": "CAR expressing TSCM cells", "setting": "CD19-CAR T cells; three days post transduction, UA vs DMSO", "result": "markedly increased"},
      {"measurement": "CAR expressing TSCM cells, share of CD8+ cells", "setting": "CD19-CAR T cells; three days post transduction, upon UA exposure", "result": "about 60%"},
      {"measurement": "muscle function", "setting": "[1]; Rodents fed with a UA-high diet", "result": "superior muscle function"},
      {"measurement": "muscle function in mice with Duchenne muscular dystrophy", "setting": "[1]; UA-high diet", "result": "recovery of muscle function"},
      {"measurement": "tumor growth (protective effect of UA)", "setting": "APTK-s.c. tumors", "result": "abrogated the protective effect of UA"}
    ]}
  ]
}
